The values below come from patent US20250297220A1, “IMMUNE-ACTIVATING COMPLEXES” (Dynamic Cell Therapies, Inc., priority 2022, published 2025).

Data set [1] in a line: Molar absorptivities at 280 nm and 493 nm. The data set is classed as physicochemical. As for the experimental part:
UV-vis absorption profiles were obtained for compound 7-functionalized antibodies, unfunctionalized antibodies, and free compound 7. FIG. 47 provides the results of these analyses. Molar absorptivities (8) were determined for the anti-BCMA antibody at 280 nm (primarily corresponding tyrosine and tryptophan absorbances from the anti-BCMA antibody) and at 493 nm for maleimide fluorescein and 5 (6)-carboxy fluorescein (primarily corresponding to the HOMO to LUMO transition within the fluorescein x-system), and are summarized in Table 18. As the unfunctionalized antibody minimally absorbed around 493 nm, absorbance in this region is quantitative for fluorescein concentration.

Data set [2] concerns engineered cytokine receptor switches (fluorescein-binding receptor domains, IL-7 receptor-a intracellular signaling domains). Description: T-cell activation, transduction, expansion and differentiation; memory phenotype quantification. The data set is classed as cell-based. The conditions noted are these: after 5 days in multi-well plates; non-fluorescein contacted cells about 30%. The source says:
This example covers activation, differentiation, and expansion of immune cells with engineered cytokine receptor switches. The engineered cytokine receptor switches included fluorescein-binding receptor domains and IL-7 receptor-a intracellular signaling domains. The cells were activated with CD3 and CD28 antibody-coated beads, followed by small molecule activators for the engineered cytokine switches to promote differentiation to memory phenotypes. The proportion of stem-cell memory, central memory, and effector memory cells were measured following differentiation.
Activation, transfection, expansion, and differentiation were performed according to the timeline in FIG. 28A. The cells were maintained in media with 20 units/ml IL2 throughout the incubation. The cells were first contacted with CD3/CD28 activating beads at a ratio of 1:1 (cells to beads). Following three days of activation and expansion, the cells were transfected with a gamma retroviral vector encoding the engineered cytokine receptor switch with fluorescein binding affinity and mCherry for fluorescence detection. The cells were then transferred to a multi-well plate. […]
Following 5 total days of incubation in the multi-well plates, the cells were analyzed for (1) stem-cell memory, (2) central memory, (3) effector memory, and (4) terminally differentiated effector memory re-expressing CD45RA phenotype. […]

As to `O=C1OC2(c3ccc(O)cc3Oc3cc(O)ccc32)c2ccc(N3C(=O)C=CC3=O)cc21` [Fluorescein-Maleimide], the ε280 nm in data set [1] (molar absorptivity at 280 nm) was determined as 7968 M⁻¹ cm⁻¹. This compound showed a ε493nm in data set [1] (molar absorptivity at 493 nm) of 43908 M⁻¹ cm⁻¹. With `O=C1OC2(c3ccc(O)cc3Oc3cc(O)ccc32)c2ccccc21` [fluorescein], the “proportion of central memory cells” value in data set [2] is reported as “about 50%”.
